Laboratory results from ChEMBL document CHEMBL5247614, “An overview of aryl hydrocarbon receptor ligands in the Last two decades (2002-2022): A medicinal chemistry perspective” (Eur J Med Chem, 2022).
Each block holds one compound with its values, some of them ahead of it.

Legend:
CYP1A1 [1] = test: Upregulation of CYP1A1 gene expression in human MDA-MB-468 cells transfected with XRE plasmid containing AhR responsive luciferase construct and renilla luciferase assessed as fold change in gene expression at 1 uM incubated for 1 hr by dual-glo luciferase assay relative to control; format: ADME, cell-based; conditions: read-out: FC
CYP1A1 [2] = test: Upregulation of CYP1A1 gene expression in human MDA-MB-468 cells transfected with XRE plasmid containing AhR responsive luciferase construct and renilla luciferase assessed as fold change in gene expression at 1 uM incubated for 24 hrs by dual-glo luciferase assay relative to control; format: ADME, cell-based; conditions: read-out: FC
[3] = target: T1, Aryl hydrocarbon receptor (Homo sapiens, UniProt P35869); test: Antagonist activity at AhR (unknown origin) assessed as inhibition of TCDD-induced luciferase activity
T1 sequence (P35869 whole entry): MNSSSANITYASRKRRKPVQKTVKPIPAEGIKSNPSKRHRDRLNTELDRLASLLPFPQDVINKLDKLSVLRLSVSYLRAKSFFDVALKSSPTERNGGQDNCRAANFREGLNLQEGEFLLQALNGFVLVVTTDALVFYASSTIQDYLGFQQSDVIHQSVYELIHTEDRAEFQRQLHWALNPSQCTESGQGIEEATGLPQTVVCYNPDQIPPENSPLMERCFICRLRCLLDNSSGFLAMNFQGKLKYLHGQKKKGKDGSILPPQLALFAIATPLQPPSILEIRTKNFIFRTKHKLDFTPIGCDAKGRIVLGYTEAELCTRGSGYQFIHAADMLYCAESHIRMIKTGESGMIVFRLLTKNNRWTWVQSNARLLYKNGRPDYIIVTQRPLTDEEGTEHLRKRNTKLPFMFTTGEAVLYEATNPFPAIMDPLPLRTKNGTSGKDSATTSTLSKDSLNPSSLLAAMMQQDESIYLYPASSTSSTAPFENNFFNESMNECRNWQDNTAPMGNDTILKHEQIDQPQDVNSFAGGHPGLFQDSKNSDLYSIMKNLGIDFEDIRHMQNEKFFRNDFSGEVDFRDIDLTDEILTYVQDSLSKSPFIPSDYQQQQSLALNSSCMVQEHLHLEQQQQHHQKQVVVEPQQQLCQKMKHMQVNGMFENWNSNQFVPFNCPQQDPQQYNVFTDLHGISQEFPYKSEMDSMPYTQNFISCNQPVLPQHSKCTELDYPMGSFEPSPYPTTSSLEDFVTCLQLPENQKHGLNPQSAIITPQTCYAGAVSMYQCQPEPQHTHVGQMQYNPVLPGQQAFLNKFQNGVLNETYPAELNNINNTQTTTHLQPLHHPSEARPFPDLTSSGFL

[4] = target: T1, Aryl hydrocarbon receptor; test: Antagonist activity at AhR (unknown origin)
[5] = target: T1, Aryl hydrocarbon receptor
[6] = target: T1, Aryl hydrocarbon receptor; test: Binding affinity to AhR (unknown origin) assessed as dissociation constant
[7] = Inhibition of kynurenic acid-induced CYP1A1 gene expression in human U-937 cells by qPCR analysis; format: ADME, cell-based
[8] = target: T1, Aryl hydrocarbon receptor; test: Antagonist activity at AhR (unknown origin) expressed in human U87 cells assessed as inhibition of kynurenic acid-induced transactivation by Renilla/Firefly based dual-glo luciferase assay; format: cell-based
[9] = target: T2, Aryl hydrocarbon receptor (Rattus norvegicus, UniProt P41738); test: Antagonist activity at AhR in rat liver cytosol assessed as inhibition of TCDD-induced AhR/DNA complex formation by gel retardation assay; format: subcellular
T2 sequence (P41738 whole entry): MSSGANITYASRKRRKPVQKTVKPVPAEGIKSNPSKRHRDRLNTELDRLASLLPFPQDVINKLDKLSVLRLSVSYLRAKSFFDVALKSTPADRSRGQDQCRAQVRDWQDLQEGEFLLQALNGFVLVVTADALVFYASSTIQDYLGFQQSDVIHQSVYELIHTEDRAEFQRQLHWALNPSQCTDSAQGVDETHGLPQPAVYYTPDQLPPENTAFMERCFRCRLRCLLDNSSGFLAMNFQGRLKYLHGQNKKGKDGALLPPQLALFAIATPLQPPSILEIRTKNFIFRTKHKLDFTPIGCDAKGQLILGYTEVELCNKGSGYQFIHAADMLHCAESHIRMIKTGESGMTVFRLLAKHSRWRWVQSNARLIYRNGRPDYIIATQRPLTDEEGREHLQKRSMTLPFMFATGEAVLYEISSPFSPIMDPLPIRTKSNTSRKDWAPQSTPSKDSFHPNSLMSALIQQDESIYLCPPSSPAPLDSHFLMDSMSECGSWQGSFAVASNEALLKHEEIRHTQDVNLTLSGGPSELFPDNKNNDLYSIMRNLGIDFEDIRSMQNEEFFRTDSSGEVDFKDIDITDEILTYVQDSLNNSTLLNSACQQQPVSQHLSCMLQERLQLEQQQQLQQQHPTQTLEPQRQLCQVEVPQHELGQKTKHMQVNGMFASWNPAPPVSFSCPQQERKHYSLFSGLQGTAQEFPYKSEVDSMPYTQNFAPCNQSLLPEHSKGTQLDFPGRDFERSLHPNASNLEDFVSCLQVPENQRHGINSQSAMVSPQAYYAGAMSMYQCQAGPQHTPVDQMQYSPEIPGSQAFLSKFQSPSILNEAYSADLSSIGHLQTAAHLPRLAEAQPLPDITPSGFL

[10] = target: T2, Aryl hydrocarbon receptor; test: Inhibition of TCDD binding to rat liver cytosol AhR; format: subcellular
[11] = target: T1, Aryl hydrocarbon receptor; test: Agonist activity at AhR (unknown origin)
[12] = target: T1, Aryl hydrocarbon receptor; test: Antagonist activity at AhR (unknown origin) assessed as inhibition of receptor activation
[13] = target: T1, Aryl hydrocarbon receptor; test: Activation of human AhR expressed in Saccharomyces cerevisiae YCM3 coexpressing ARNT incubated for 18 hrs
[14] = target: T1, Aryl hydrocarbon receptor; test: Modulator activity at AhR (unknown origin)
Saccharomyces cerevisiae = test: Activation of transcription in yeast expressing AhR and ARNT; format: functional, organism-based

Compound: Nc1ccccc1N1C(=O)c2cccc3cccc(c23)C1=O
fold induction at 1 h, 1 µM (CYP1A1 [1]): 25
fold induction at 24 h, 1 µM (CYP1A1 [2]): 250

Compound: Cc1[nH]c2ccccc2c1C
IC50 [4]: 11000 nM

Compound: CC(C)n1cnc2c(NCCc3ccc(O)cc3)nc(-c3csc4ccccc34)nc21
IC50 [5]: 127 nM

Compound: O=c1c(Cc2c[nH]c3ccccc23)nccc2c1[nH]c1ccccc12
EC50 [11]: 12 nM

Compound: O=C(NCC(O)C(F)(F)F)c1cc(-c2ccc(OC(F)(F)F)cc2)nn(-c2cccnc2)c1=O (centres undefined)
IC50 [4]: 82.2 nM

Compound: c1ccc2c(c1)Nc1nc3ccccc3c3ccnc-2c13
EC50 [11]: 0.01 nM

Compound: Clc1cc2c(cc1Cl)Oc1cc(Cl)c(Cl)cc1O2 [2,3,7,8-TETRACHLORODIBENZO-P-DIOXIN]
EC50 [13]: 9 nM

Compound: NCCc1c[nH]c2ccccc12 [TRYPTAMINE]
EC50 (Saccharomyces cerevisiae): 300000 nM

Second part, the compound after the results:

IC50 [3]: 30 nM
Compound: Cc1ccccc1/N=N/c1ccc(NC(=O)c2ccnn2C)c(C)c1

Kd [6]: 0.19 nM
Compound: c1ccc2c(c1)[nH]c1cc3c(cc12)[nH]c1ccccc13

IC50 [7]: 70700 nM
IC50 [8]: 39.9 nM
Compound: CC(CO)NC(=O)c1cc(-c2ccc(Cl)cc2)nn(-c2cccc(F)c2)c1=O (centres undefined)

IC50 [9]: 1000 nM
IC50 [10]: 4000 nM
Compound: COc1ccc(-c2coc3ccccc3c2=O)cc1N

EC70 [12]: 3900 nM
Compound: O=C1CC(C(=O)O)c2c1oc(=O)c1cc(O)c(O)c(O)c21 (centres undefined)

IC50 [4]: < 500 nM
Compound: CC(C)c1cnn2c(N[C@@H]3CCc4[nH]c5ccccc5c4C3)nc(-c3cncc(F)c3)nc12

IC50 [4]: 12000 nM
Compound: Cc1[nH]c2c(C)cccc2c1C

EC50 [14]: 78000 nM
Kd [6]: 90 nM
Compound: c1ccc2c(Cc3c[nH]c4ccccc34)c[nH]c2c1 [ARUNDINE]

Kd [6]: 50 nM
Compound: CCS(=O)(=O)c1ccc2oc(-c3ccc4ccccc4c3)nc2c1 [EZUTROMID]

EC50 (Saccharomyces cerevisiae): 300000 nM
Compound: O=C(O)Cc1c[nH]c2ccccc12 [INDOLE-3-ACETIC ACID]

EC50 (Saccharomyces cerevisiae): 300000 nM
Compound: c1ccc2[nH]ccc2c1 [INDOLE]

EC50 (Saccharomyces cerevisiae): 300000 nM
Compound: N[C@@H](Cc1c[nH]c2ccccc12)C(=O)O [TRYPTOPHAN]
